Results published in patent US20100004159A1, “SUBSTITUTED IMIDAZOLONE DERIVATIVES, PREPARATIONS AND USES” (GENFIT, priority 2006, published 2010).

Experiments:
hPPARγ = molecular target: T1, hPPARγ (Homo sapiens, UniProt P37231); experiment: Gal4-hPPARγ transactivation in COS-7 cells (luciferase); type: cell-based; details: for EC50: Gal4-hPPARγ chimera, COS-7 cells, 24 hours
T1 construct: DNA fragments amplified by PCR and corresponding to the DEF domains of human PPARα, PPARγ, and PPARδ nuclear receptors; expressed in transfected cells; host or cells: COS-7
T1 sequence (P37231 238-503 limits assumed): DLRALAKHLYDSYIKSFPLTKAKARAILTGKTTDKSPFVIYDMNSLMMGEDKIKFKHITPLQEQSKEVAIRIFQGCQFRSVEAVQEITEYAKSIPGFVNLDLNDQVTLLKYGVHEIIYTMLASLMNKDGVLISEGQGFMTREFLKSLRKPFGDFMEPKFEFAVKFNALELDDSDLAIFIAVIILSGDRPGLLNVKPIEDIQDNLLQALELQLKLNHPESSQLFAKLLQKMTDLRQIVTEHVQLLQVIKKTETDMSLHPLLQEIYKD
Procedure: The activation of PPARs was evaluated in vitro using a monkey kidney fibroblast line (COS-7) by measuring the transcriptional activity of chimeras made up of the DNA binding domain of the Gal4 transcription factor of yeast and of the binding domain to the ligand of the different PPARs. The compounds were tested at doses of between 0.01 and 100 μM on Gal4-PPARα, γ, and δ chimeras.
COS-7 cells came from ATCC (American type culture collection) and were cultivated in a DMEM medium supplemented with 10% (vol/vol) of fetal calf serum, 100 U/ml of penicillin (Gibco, Paisley, UK) and 2 mM of L-Glutamine (Gibco, Paisley, UK). The cells were incubated at 37° C. under humid atmosphere containing 5% CO2.
The plasmids Gal4(RE)_TkpGL3, pGal4-hPPARα, pGal4-hPPARγ, pGal4-hPPARδ and pGal4-φ have been described in the literature (Raspe E et al., 1999). The constructions pGal4-hPPARα, pGal4-hPPARγ, and pGal4-hPPARδ were obtained by cloning, in the pGal4-φ vector, DNA fragments amplified by PCR and corresponding to the DEF domains of human PPARα, PPARγ, and PPARδ nuclear receptors.
The COS-7 cells in suspension were transfected with 150 ng of DNA per well, with a pGal4-PPAR/Gal4(RE)_TkpGL3 ratio of 1/10, in presence of 10% fetal calf serum. The cells were then plated in 96-well plates (4×10^4 cells/well), then incubated for 24 hours at 37° C. Activation with the test compounds was performed for 24 hours at 37° C. in a medium without serum. At the end of the experiment, the cells were lysed and the luciferase activity was determined using the Steady-Lite™ HTS (Perkin Elmert) or the Steady Glow Luciferase kit (Promega), in accordance with the provider's recommendations.
The compounds according to the invention were tested at doses between 0,01 and 100 μM on the 3 PPAR isoforms. The results obtained are presented in detail under FIG. 1a.

ApoE2/E2 mouse = experiment: Plasma lipids and cholesterol distribution in dyslipidemic ApoE2/E2 mouse; type: in vivo; details: for total cholesterol level / triglyceride level: 7 days per os
Procedure: The hypolipemic properties of the compounds according to the invention were evaluated in vivo by assaying plasma lipids and by an analysis of the gene expression of PPARs target genes, in the liver after a treatment of the dyslipidemic E2/E2 mice with the compounds according to the invention.
The murine model used is the ApoE2/E2 mouse, a transgenic mouse having human apolipoprotein E isoform E2 (Sullivan P M et al., 1998). In human, this apolipoprotein, a constituent of the low and the very low density lipoproteins (LDL-VLDL), exists in three isoforms E2, E3, and E4. The E2 form has a mutation affecting the amino acid of position 158, which considerably weakens the affinity of this protein for the receptors to LDL., the VLDL clearance is nearly non-existent.
The ApoE2/E2 transgenic mice were kept on a 12 hour/12 hour light/dark cycle at a constant temperature of 20±3° C. After a one week acclimatization period, the mice were weighed and divided into groups of 5 animals selected so as to render uniform the distribution of their body weights and their plasma lipid levels, determined before the experiment. The tested compounds were suspended in carboxymethylcellulose (Sigma C4888) and administered by intra-gastric tube feeding, once a day for 7 days at the chosen dose. The animals had free access to food and water. At the end of the experiment, the animals were anesthetized after a 4 hour fast, a blood sample was taken using anticoagulant (EDTA), then the mice were weighed and euthanized. The plasma was separated by centrifugation at 3000 rotations/minute for 20 minutes. The samples were kept at +4° C.
Plasma lipid concentrations (total cholesterol and triglycerides) were measured by enzymatic assays (bioMerieux-Lyon-France) according to the provider's recommendations.
The different lipid fractions (VLDL, LDL,HDL) of the plasma were separated by gel-filtration chromatography. The concentrations of cholesterol of each fraction were then measured by enzymatic assays (bioMerieux-Lyon-France) according to the provider's recommendations.

[1] = 7-day treatment, 10, 30 and 100 mpk

| Compound | activation of hPPARγ (luciferase activity) (hPPARγ; COS-7 cells transfected pGal4-hPPAR, 0.01 to 100 μM) | EC50 (hPPARγ) [µM] | total cholesterol level (ApoE2/E2 mouse; 25, 50, 100 and 200 mpk) | triglyceride level (ApoE2/E2 mouse; 25, 50, 100 and 200 mpk) | HDL-cholesterol fraction (ApoE2/E2 mouse; [1]) | cholesterol in VLDL and LDL fractions (ApoE2/E2 mouse; [1]) | total cholesterol level (ApoE2/E2 mouse; 10, 30 or 100 mpk) | triglyceride level (ApoE2/E2 mouse; 10, 30 or 100 mpk) |
| --- | --- | --- | --- | --- | --- | --- | --- | --- |
| CCCCC1=NC2(CCCC2)C(=O)N1Cc1ccc(-c2cccc(OC(C)(C)C(=O)O)c2)cc1 [Compound 1, 2-butyl-1-[(3′-((1-carboxy-1,1-dimethylmethyl)oxy)biphenyl-4-yl)methyl]-4-spirocyclopentyl-1H-imidazol-5(4H)-one] | activate the two PPAR isoforms | 8 | remarkable dose-dependently decrease | remarkable dose-dependently decrease | – | – | – | – |
| CCCCC1=NC2(CCCCC2)C(=O)N1Cc1ccc(-c2cccc(OC(C)(C)C(=O)O)c2)cc1 [Compound 21, 2-butyl-1-[(3′-((1-carboxy-1,1-dimethylmethyl)oxy)biphenyl-4-yl)methyl]-4-spirocyclohexyl-1H-imidazol-5(4H)-one] | – | 1 | – | – | significant increase | significant decrease | remarkable dose-dependently decrease | remarkable dose-dependently decrease |
